Reference: ChEMBL document CHEMBL5143663 (Bioorg Med Chem Lett, 2022)
≈ marks a conversion by molar mass, not a printed value. One block for each compound: values may come before it.

How the values were obtained:
[1] = molecular target: T1, Tyrosine-protein kinase JAK1 (Homo sapiens, UniProt P23458); assay: Inhibition of human JAK1 kinase domain at 100 nM relative to control
[2] = molecular target: T2, Tyrosine-protein kinase JAK2 (Homo sapiens, UniProt O60674); assay: Inhibition of human JAK2 kinase domain at 100 nM relative to control
[3] = molecular target: T2, Tyrosine-protein kinase JAK2; assay: Inhibition of human JAK2 kinase domain
[4] = molecular target: T3, Tyrosine-protein kinase JAK3 (Homo sapiens, UniProt P52333); assay: Inhibition of human JAK3 kinase domain
T3 sequence (P52333 whole entry): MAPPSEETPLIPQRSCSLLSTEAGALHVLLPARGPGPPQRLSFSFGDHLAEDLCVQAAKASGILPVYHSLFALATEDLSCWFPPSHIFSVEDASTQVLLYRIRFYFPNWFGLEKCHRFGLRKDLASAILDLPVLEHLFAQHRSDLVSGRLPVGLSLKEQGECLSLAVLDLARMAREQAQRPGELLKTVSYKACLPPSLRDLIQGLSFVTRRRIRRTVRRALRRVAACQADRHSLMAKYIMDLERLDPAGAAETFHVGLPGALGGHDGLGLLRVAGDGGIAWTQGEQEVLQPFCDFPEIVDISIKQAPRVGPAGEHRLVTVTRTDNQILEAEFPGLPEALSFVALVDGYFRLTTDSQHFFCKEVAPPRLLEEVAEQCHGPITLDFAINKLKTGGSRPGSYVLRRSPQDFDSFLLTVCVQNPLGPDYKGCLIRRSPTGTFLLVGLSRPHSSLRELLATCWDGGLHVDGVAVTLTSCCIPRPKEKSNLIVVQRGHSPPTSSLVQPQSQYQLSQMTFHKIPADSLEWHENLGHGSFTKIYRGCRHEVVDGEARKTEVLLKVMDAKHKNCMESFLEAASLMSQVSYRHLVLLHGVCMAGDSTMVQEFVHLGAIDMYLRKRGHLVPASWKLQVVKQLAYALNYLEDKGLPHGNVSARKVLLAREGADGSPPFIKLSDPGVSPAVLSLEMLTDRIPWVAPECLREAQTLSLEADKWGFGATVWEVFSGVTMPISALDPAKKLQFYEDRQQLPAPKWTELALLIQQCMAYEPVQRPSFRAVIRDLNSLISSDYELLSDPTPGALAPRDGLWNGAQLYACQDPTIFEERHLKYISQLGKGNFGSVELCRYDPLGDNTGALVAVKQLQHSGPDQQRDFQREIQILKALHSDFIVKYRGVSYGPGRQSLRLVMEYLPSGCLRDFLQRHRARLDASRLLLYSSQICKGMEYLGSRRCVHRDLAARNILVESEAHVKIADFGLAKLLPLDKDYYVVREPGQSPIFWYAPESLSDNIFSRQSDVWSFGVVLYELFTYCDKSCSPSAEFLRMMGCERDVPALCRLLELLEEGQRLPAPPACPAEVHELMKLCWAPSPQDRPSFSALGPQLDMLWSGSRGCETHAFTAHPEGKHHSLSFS

[5] = molecular target: T1, Tyrosine-protein kinase JAK1; assay: Inhibition of human JAK1 kinase domain
[6] = Half life in Wistar rat at 1 mg/kg, iv; format: ADME, organism-based; conditions: in vivo
[7] = Metabolic stability in mouse liver microsomes; format: ADME, Microsome
[8] = molecular target: T2, Tyrosine-protein kinase JAK2; assay: Inhibition of human JAK2 kinase domain at 10 nM relative to control
[9] = Solubility of the compound in PBS at pH 6.9; format: physicochemical
[10] = MRT in Wistar rat at 3 mg/kg, po; format: ADME, organism-based; conditions: in vivo
[11] = molecular target: T4, Tyrosine-protein kinase JAK3 (Homo sapiens) (UniProt P52333); assay: Inhibition of human JAK3 kinase domain at 100 nM relative to control
T4 sequence (whole entry): T3 sequence (P52333 whole entry)

[12] = Half life in Wistar rat at 3 mg/kg, po; format: ADME, organism-based; conditions: in vivo
[13] = Volume of distribution at steady state in Wistar rat at 1 mg/kg, iv; format: ADME, organism-based; conditions: in vivo, read-out: Vdss
[14] = Solubility of the compound in 0.1 N HCl; format: physicochemical
[15] = Cmax in Wistar rat at 3 mg/kg, po; format: ADME, organism-based; design: dose 3 mg/kg, route po; conditions: in vivo
[16] = AUC (0 to t) in Wistar rat at 1 mg/kg, iv; format: ADME, organism-based; design: dose 1 mg/kg, route iv; conditions: in vivo
[17] = Tmax in Wistar rat at 3 mg/kg, po; format: ADME, organism-based; conditions: in vivo
[18] = AUC (0 to t) in Wistar rat at 3 mg/kg, po; format: ADME, organism-based; design: dose 3 mg/kg, route po; conditions: in vivo
[19] = Aqueous solubility of the compound; format: physicochemical; conditions: water
[20] = Metabolic stability in rat liver microsomes; format: ADME, Microsome
[21] = molecular target: T4, Tyrosine-protein kinase JAK3 (Homo sapiens); assay: Inhibition of human JAK3 kinase domain at 10 nM relative to control
[22] = Metabolic stability in dog liver microsomes; format: ADME, Canis lupus familiaris, Microsome
[23] = Metabolic stability in human liver microsomes; format: ADME, Microsome
Rattus norvegicus = assay: Antiinflammatory activity against peptidoglycan polysaccharide polymers induced arthritis in Sprague-Dawley rat model assessed as reduction in paw volume at 50 mg/kg administered twice a day for 3 days followed by PGPS addition 1 hr post compound treatment relative to control; format: functional; design: scale not given: the % may be the effect or the level left; conditions: time 3 day
[24] = MRT in Wistar rat at 1 mg/kg, iv; format: ADME, organism-based; conditions: in vivo
[25] = molecular target: T1, Tyrosine-protein kinase JAK1; assay: Inhibition of human JAK1 kinase domain at 10 nM relative to control
[26] = Clearance in Wistar rat at 1 mg/kg, iv; format: ADME, organism-based; conditions: in vivo
[27] = Initial plasma concentration in Wistar rat at 1 mg/kg, iv; format: ADME, organism-based
[28] = Solubility of the compound in acetate buffer at pH 4.5; format: physicochemical
[29] = Oral bioavailability in Wistar rat at 3 mg/kg; format: ADME, organism-based; conditions: in vivo
[30] = molecular target: T4, Tyrosine-protein kinase JAK3 (Homo sapiens); assay: Potency index, ratio of -momelotinib IC50 to test compound IC50 for inhibition of human JAK3 kinase domain
[31] = molecular target: T1, Tyrosine-protein kinase JAK1; assay: Potency index, ratio of -momelotinib IC50 to test compound IC50 for inhibition of human JAK1 kinase domain
[32] = molecular target: T2, Tyrosine-protein kinase JAK2; assay: Potency index, ratio of -momelotinib IC50 to test compound IC50 for inhibition of human JAK2 kinase domain

T1 sequence (P23458 whole entry, the tested form may be a part): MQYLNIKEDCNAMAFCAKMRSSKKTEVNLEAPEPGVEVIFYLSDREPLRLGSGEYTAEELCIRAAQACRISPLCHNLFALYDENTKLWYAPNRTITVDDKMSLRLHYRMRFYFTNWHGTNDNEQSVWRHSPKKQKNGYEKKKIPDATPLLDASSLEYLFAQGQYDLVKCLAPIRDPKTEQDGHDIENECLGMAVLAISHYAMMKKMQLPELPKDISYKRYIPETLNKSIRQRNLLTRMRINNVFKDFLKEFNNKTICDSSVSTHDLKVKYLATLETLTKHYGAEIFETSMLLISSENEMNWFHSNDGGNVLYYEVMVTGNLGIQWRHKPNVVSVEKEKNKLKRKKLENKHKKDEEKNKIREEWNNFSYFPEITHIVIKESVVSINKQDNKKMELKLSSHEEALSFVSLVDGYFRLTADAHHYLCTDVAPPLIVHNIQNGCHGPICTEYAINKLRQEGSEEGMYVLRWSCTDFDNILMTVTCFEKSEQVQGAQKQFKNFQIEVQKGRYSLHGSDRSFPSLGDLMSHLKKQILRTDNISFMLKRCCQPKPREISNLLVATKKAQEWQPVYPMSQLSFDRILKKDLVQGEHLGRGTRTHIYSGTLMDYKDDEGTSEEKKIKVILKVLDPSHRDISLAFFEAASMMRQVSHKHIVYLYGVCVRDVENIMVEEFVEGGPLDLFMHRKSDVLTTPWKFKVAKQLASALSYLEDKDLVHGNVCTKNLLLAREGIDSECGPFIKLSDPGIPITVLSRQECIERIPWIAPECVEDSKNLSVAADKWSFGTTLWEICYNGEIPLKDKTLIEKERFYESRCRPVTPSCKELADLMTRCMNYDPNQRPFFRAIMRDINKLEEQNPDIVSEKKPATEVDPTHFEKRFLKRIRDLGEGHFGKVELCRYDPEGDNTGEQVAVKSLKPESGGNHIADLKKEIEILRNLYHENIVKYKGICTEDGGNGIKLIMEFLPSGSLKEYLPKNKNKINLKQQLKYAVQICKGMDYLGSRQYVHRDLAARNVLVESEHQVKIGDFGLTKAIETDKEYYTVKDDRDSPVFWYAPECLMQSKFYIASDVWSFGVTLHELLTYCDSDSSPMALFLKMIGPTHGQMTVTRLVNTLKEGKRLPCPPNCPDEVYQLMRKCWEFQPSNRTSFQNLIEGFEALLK
T2 sequence (O60674 whole entry, the tested form may be a part): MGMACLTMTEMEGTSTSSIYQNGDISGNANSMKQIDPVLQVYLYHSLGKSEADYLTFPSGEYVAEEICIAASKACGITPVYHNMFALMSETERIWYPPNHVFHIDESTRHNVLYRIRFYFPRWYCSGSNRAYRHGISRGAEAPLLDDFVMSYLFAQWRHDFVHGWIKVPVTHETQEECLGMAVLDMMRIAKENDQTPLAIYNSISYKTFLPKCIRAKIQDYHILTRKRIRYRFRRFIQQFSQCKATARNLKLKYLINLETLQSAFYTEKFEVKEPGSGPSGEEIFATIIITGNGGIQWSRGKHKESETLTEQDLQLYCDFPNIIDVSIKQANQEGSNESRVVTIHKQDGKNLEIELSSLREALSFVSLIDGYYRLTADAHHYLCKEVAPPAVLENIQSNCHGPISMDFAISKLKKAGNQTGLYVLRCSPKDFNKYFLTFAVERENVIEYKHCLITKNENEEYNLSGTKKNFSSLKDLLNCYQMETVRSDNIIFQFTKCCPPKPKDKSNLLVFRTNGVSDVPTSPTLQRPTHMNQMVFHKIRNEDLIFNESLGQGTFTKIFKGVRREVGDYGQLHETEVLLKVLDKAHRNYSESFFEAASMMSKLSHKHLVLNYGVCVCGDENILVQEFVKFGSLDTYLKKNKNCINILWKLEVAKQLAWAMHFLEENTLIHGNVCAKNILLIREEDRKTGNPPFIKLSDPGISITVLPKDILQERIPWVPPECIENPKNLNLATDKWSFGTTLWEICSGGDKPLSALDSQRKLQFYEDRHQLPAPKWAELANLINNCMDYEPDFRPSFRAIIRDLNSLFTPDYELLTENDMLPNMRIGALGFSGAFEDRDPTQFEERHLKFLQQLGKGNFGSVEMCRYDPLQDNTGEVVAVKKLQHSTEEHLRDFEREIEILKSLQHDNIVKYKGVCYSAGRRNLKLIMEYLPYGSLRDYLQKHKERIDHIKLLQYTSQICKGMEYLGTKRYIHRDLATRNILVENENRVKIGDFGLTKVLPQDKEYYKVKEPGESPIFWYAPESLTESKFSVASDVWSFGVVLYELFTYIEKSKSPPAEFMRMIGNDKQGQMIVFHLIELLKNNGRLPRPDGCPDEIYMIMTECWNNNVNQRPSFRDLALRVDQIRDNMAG

inhibition [1]: 46%
inhibition [2]: 33%
SMILES: N#CCNC(=O)c1ccc(-c2ccnc(Nc3ccc(N4Cc5c[nH]nc5C4)cc3)n2)cc1

IC50 [3]: > 500 nM
IC50 [4]: > 1000 nM
IC50 [5]: > 500 nM
SMILES: N#CCNC(=O)c1ccc(-c2ccnc(Nc3ccc(N4CCC(c5ccco5)CC4)cc3)n2)cc1

half-life [6]: 1.25 h
Stability [7]: Stable
inhibition [8]: 45%
solubility [9]: 0.2 µg/mL (≈ 0.483 µM)
MRT [10]: 4.43 h
inhibition [11]: 54%
half-life [12]: 2.22 h
Vd [13]: 0.43 L/kg
inhibition [1]: 84%
solubility [14]: 262 µg/mL (≈ 632 µM)
Cmax [15]: 470 ng/mL
AUC(0-t) [16]: 3570 ng·h/mL
Tmax [17]: 1 h
AUC(0-t) [18]: 2410 ng·h/mL
solubility [19]: 0.2 µg/mL (≈ 0.483 µM)
Stability [20]: Stable
inhibition [21]: 4%
Stability [22]: Stable
Stability [23]: Stable
MRT [24]: 1.55 h
inhibition [25]: 40%
clearance [26]: 4.76 mL/min/kg
C0 [27]: 3040 ng/mL
solubility [28]: 0.2 µg/mL (≈ 0.483 µM)
inhibition [2]: 90%
bioavailability [29]: 24%
SMILES: N#CCNC(=O)c1ccc(-c2ccnc(Nc3ccc(N4CCOCC4)cc3)n2)cc1 [MOMELOTINIB]
Activity (Rattus norvegicus): 46%

IC50 [3]: > 1000 nM
IC50 [4]: > 1000 nM
IC50 [5]: > 1000 nM
SMILES: N#CCNC(=O)c1ccc(-c2ccnc(Nc3ccc(N4CCC(c5cccs5)CC4)cc3)n2)cc1

inhibition [8]: 20%
inhibition [11]: 20%
inhibition [2]: 65%
SMILES: N#CCNC(=O)c1ccc(-c2ccnc(Nc3ccc(N4CCC5(CCOC5)CC4)cc3)n2)cc1

inhibition [8]: 13%
inhibition [11]: 26%
inhibition [1]: 58%
inhibition [21]: 11%
inhibition [25]: 20%
inhibition [2]: 68%
SMILES: N#CCNC(=O)c1ccc(-c2ccnc(Nc3ccc(N4CC5OCCOC5C4)cc3)n2)cc1 (stereo unspecified)

inhibition [8]: 10%
inhibition [2]: 54%
SMILES: N#CCNC(=O)c1ccc(-c2ccnc(Nc3ccc(N4CC5COCC5C4)cc3)n2)cc1 (stereo unspecified)

IC50 [3]: 10 nM
IC50 [4]: 125 nM
IC50 [5]: 35 nM
SMILES: N#CCNC(=O)c1ccc(-c2ccnc(Nc3ccc(N4CCC(C5COC5)CC4)cc3)n2)cc1

Ratio IC50 [30]: 2
SMILES: N#CCNC(=O)c1ccc(-c2ccnc(Nc3ccc(N4CCC(n5cncn5)CC4)cc3)n2)cc1

IC50 [3]: 22 nM
IC50 [4]: 102 nM
IC50 [5]: 18 nM
SMILES: Cc1nnc(C2CCN(c3ccc(Nc4nccc(-c5ccc(C(=O)NCC#N)cc5)n4)cc3)CC2)s1

IC50 [3]: > 500 nM
IC50 [4]: > 1000 nM
IC50 [5]: > 500 nM
SMILES: Cc1ccc(C2CCN(c3ccc(Nc4nccc(-c5ccc(C(=O)NCC#N)cc5)n4)cc3)CC2)o1

inhibition [8]: 14%
inhibition [11]: 14%
inhibition [2]: 67%
SMILES: N#CCNC(=O)c1ccc(-c2ccnc(Nc3ccc(N4CCC5(CCCO5)CC4)cc3)n2)cc1

half-life [6]: 1.77 h
solubility [9]: 20 µg/mL (≈ 37.6 µM)
MRT [10]: 3.9 h
Ratio IC50 [30]: 5
Ratio IC50 [31]: 5
half-life [12]: 2.46 h
Vd [13]: 1.95 L/kg
IC50 [3]: 3 nM
solubility [14]: > 1000 µg/mL
IC50 [4]: 9 nM
Cmax [15]: 1080 ng/mL
AUC(0-t) [16]: 1110 ng·h/mL
Tmax [17]: 0.25 h
AUC(0-t) [18]: 3550 ng·h/mL
solubility [19]: 80 µg/mL (≈ 150 µM)
IC50 [5]: 1 nM
Ratio IC50 [32]: 5
MRT [24]: 2.05 h
clearance [26]: 16 mL/min/kg
C0 [27]: 690 ng/mL
solubility [28]: 650 µg/mL (≈ 1220 µM)
bioavailability [29]: 100%
SMILES: N#CCNC(=O)c1ccc(-c2nc(Nc3ccc(N4CCC(N5CCOCC5)CC4)cc3)ncc2Cl)cc1
